Laboratory results from US11873309B2, “Heterocyclic compounds as immunomodulators” (Incyte Corporation, priority 2016, dated 2024).

Target: T1, PD-1/PD-L1 protein/protein interaction (recombinant human PD-L1 protein (19-238), recombinant human PD-1 protein (25-167)) (Homo sapiens, UniProt Q9NZQ7)
T1 construct: Recombinant human PD-L1 protein (19-238) with a His-tag at the C-terminus; purchased AcroBiosystems PD1-H5229 (PD-L1); PD1-H5257 (PD-1)
Assay: PD-1/PD-L1 Homogeneous Time-Resolved Fluorescence (HTRF) Binding Assay
Conditions: 25° C., PBS buffer pH 7.4, 40 minutes preincubation with inhibitors
Experimental: Example A. PD-1/PD-L1 Homogeneous Time-Resolved Fluorescence (HTRF) Binding Assay
The assays were conducted in a standard black 384-well polystyrene plate with a final volume of 20 μL. Inhibitors were first serially diluted in DMSO and then added to the plate wells before the addition of other reaction components. The final concentration of DMSO in the assay was 1%. The assays were carried out at 25° C. in the PBS buffer (pH 7.4) with 0.05% Tween-20 and 0.1% BSA. Recombinant human PD-L1 protein (19-238) with a His-tag at the C-terminus was purchased from AcroBiosystems (PD1-H5229). Recombinant human PD-1 protein (25-167) with Fc tag at the C-terminus was also purchased from AcroBiosystems (PD1-H5257). PD-L1 and PD-1 proteins were diluted in the assay buffer and 10 μL was added to the plate well. Plates were centrifuged and proteins were preincubated with inhibitors for 40 minutes. The incubation was followed by the addition of 10 μL of HTRF detection buffer supplemented with Europium cryptate-labeled anti-human IgG (PerkinElmer-AD0212) specific for Fc and anti-His antibody conjugated to SureLight®-Allophycocyanin (APC, PerkinElmer-AD0059H). After centrifugation, the plate was incubated at 25° C. for 60 min. before reading on a PHERAstar FS plate reader (665 nm/620 nm ratio). Final concentrations in the assay were […], 10 nM PD-L1, 1 nM europium anti-human IgG and 20 nM anti-His-Allophycocyanin. IC50 determination was performed by fitting the curve of percent control activity versus the log of the inhibitor concentration using the GraphPad Prism 5.0 software.

T1 sequence (Q9NZQ7 19-238): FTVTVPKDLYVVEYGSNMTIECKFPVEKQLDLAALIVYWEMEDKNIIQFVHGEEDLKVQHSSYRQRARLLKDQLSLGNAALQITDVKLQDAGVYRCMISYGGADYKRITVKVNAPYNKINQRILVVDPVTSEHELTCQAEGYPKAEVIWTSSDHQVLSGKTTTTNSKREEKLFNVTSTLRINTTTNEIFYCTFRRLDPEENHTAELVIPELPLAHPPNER

Compound | IC50 [nM]
N#Cc1c(NC(=O)c2nc3c(s2)CNCC3)cccc1C1CCCCC1 [Example 8, N-(2-cyano-3-cyclohexylphenyl)-4,5,6,7-tetrahydro[1,3]thiazolo[5,4-c]pyridine-2-carboxamide] | 100 to 500
N#Cc1c(NC(=O)c2cc3n(n2)CCNC3)cccc1-c1ccc2c(c1)OCCO2 [Example 10, N-[2-cyano-3-(2,3-dihydro-1,4-benzodioxin-6-yl)phenyl]-4,5,6,7-tetrahydropyrazolo[1,5-a]pyrazine-2-carboxamide] | 100 to 500
N#Cc1c(NC(=O)c2cc3n(n2)CCN(CCO)C3)cccc1-c1ccc2c(c1)OCCO2 [Example 11, N-[2-cyano-3-(2,3-dihydro-1,4-benzodioxin-6-yl)phenyl]-5-(2-hydroxyethyl)-4,5,6,7-tetrahydropyrazolo[1,5-a]pyrazine-2-carboxamide] | 100 to 500
N#Cc1c(NC(=O)c2nc3n(n2)CCNC3)cccc1-c1ccc2c(c1)OCCO2 [Example 14, N-[2-cyano-3-(2,3-dihydro-1,4-benzodioxin-6-yl)phenyl]-5,6,7,8-tetrahydro[1,2,4]triazolo[1,5-a]pyrazine-2-carboxamide] | 500 to 10000
N#Cc1cccc(-c2cccc(NC(=O)c3nc4c(s3)CNCC4)c2C#N)c1F [Example 15, N-(2,3′-dicyano-2′-fluorobiphenyl-3-yl)-4,5,6,7-tetrahydro[1,3]thiazolo[5,4-c]pyridine-2-carboxamide] | 100 to 500
N#Cc1c(NC(=O)c2nc3c(s2)CNCC3)cccc1-c1ccccc1Cl [Example 18, N-(2′-chloro-2-cyanobiphenyl-3-yl)-4,5,6,7-tetrahydro[1,3]thiazolo[5,4-c]pyridine-2-carboxamide] | ≤ 100
COc1cccc(-c2cccc(NC(=O)c3cn4c(n3)CNCC4)c2C#N)c1F [Example 19, N-(2-cyano-2′-fluoro-3′-methoxybiphenyl-3-yl)-5,6,7,8-tetrahydroimidazo[1,2-a]pyrazine-2-carboxamide] | ≤ 100
Cc1c(NC(=O)c2nc3c(s2)CNCC3)cccc1-c1ccc2c(c1)OCCO2 [Example 20, N-[3-(2,3-dihydro-1,4-benzodioxin-6-yl)-2-methylphenyl]-4,5,6,7-tetrahydro[1,3]thiazolo[5,4-c]pyridine-2-carboxamide] | ≤ 100
COc1cccc(-c2cccc(NC(=O)c3nc4c(s3)CNCC4)c2C)c1F [Example 21, N-(2′-fluoro-3′-methoxy-2-methylbiphenyl-3-yl)-4,5,6,7-tetrahydro[1,3]thiazolo[5,4-c]pyridine-2-carboxamide] | ≤ 100
COc1cccc(-c2cccc(NC(=O)c3nc4c(n3C)CCNC4)c2C)c1F [Example 22, N-(2′-fluoro-3′-methoxy-2-methylbiphenyl-3-yl)-1-methyl-4,5,6,7-tetrahydro-1H-imidazo[4,5-c]pyridine-2-carboxamide] | ≤ 100
Cc1c(NC(=O)c2nc3c(s2)CNCC3)cccc1-c1cccc2c1cnn2C [Example 23, N-[2-methyl-3-(1-methyl-1H-indazol-4-yl)phenyl]-4,5,6,7-tetrahydro[1,3]thiazolo[5,4-c]pyridine-2-carboxamide] | ≤ 100
Cc1c(NC(=O)c2nc3c(s2)CNCC3)cccc1-c1cccc(CO)c1F [Example 24, N-[2′-fluoro-3′-(hydroxymethyl)-2-methylbiphenyl-3-yl]-4,5,6,7-tetrahydro[1,3]thiazolo[5,4-c]pyridine-2-carboxamide] | 500 to 10000
Cc1c(NC(=O)c2nc3c(s2)CNCC3)cccc1-c1cccc2[nH]ncc12 [Example 25, N-[3-(1H-indazol-4-yl)-2-methylphenyl]-4,5,6,7-tetrahydro[1,3]thiazolo[5,4-c]pyridine-2-carboxamide] | ≤ 100
Cc1c(NC(=O)c2nc3c(s2)CNCC3)cccc1-c1ccccc1 [Example 26, N-(2-methylbiphenyl-3-yl)-4,5,6,7-tetrahydro[1,3]thiazolo[5,4-c]pyridine-2-carboxamide] | ≤ 100

Next, values leading:

IC50 [nM] | Compound
≤ 100 | N#Cc1c(NC(=O)c2nc3c(s2)CNCC3)cccc1-c1ccc2c(c1)OCCO2 [Example 1, N-[2-cyano-3-(2,3-dihydro-1,4-benzodioxin-6-yl)phenyl]-4,5,6,7-tetrahydro[1,3]thiazolo[5,4-c]pyridine-2-carboxamide]
≤ 100 | N#Cc1c(NC(=O)c2nc3c(s2)CNCC3)cccc1-c1ccccc1 [Example 2, N-(2-cyanobiphenyl-3-yl)-4,5,6,7-tetrahydro[1,3]thiazolo[5,4-c]pyridine-2-carboxamide]
≤ 100 | Cn1ncc2c(-c3cccc(NC(=O)c4nc5c(s4)CNCC5)c3C#N)cccc21 [Example 3, N-[2-cyano-3-(1-methyl-1H-indazol-4-yl)phenyl]-4,5,6,7-tetrahydro[1,3]thiazolo[5,4-c]pyridine-2-carboxamide]
≤ 100 | N#Cc1c(NC(=O)c2nc3c(s2)CNCC3)cccc1-c1ccccc1F [Example 4, N-(2-cyano-2′-fluorobiphenyl-3-yl)-4,5,6,7-tetrahydro[1,3]thiazolo[5,4-c]pyridine-2-carboxamide]
≤ 100 | COc1cccc(-c2cccc(NC(=O)c3nc4c(s3)CNCC4)c2C#N)c1F [Example 5, N-(2-cyano-2′-fluoro-3′-methoxybiphenyl-3-yl)-4,5,6,7-tetrahydro[1,3]thiazolo[5,4-c]pyridine-2-carboxamide]
≤ 100 | N#Cc1c(NC(=O)c2nc3c(s2)CNCC3)cccc1-c1ccc2c(c1)OCC2 [Example 6, N-[2-cyano-3-(2,3-dihydro-1-benzofuran-6-yl)phenyl]-4,5,6,7-tetrahydro[1,3]thiazolo[5,4-c]pyridine-2-carboxamide]
≤ 100 | N#Cc1c(NC(=O)c2nc3c(s2)CNCC3)cccc1C1=CCCCC1 [Example 7, N-(2-cyano-3-cyclohex-1-en-1-ylphenyl)-4,5,6,7-tetrahydro[1,3]thiazolo[5,4-c]pyridine-2-carboxamide]
≤ 100 | N#Cc1c(NC(=O)c2nc3c(s2)CNCC3)cccc1-c1c(F)cccc1F [Example 9, N-(2-cyano-2′,6′-difluorobiphenyl-3-yl)-4,5,6,7-tetrahydro[1,3]thiazolo[5,4-c]pyridine-2-carboxamide]
≤ 100 | Cn1c(C(=O)Nc2cccc(-c3ccc4c(c3)OCCO4)c2C#N)nc2c1CCNC2 [Example 12, N-[2-cyano-3-(2,3-dihydro-1,4-benzodioxin-6-yl)phenyl]-1-methyl-4,5,6,7-tetrahydro-1H-imidazo[4,5-c]pyridine-2-carboxamide]
≤ 100 | Cn1c(C(=O)Nc2cccc(-c3ccc4c(c3)OCCO4)c2C#N)nc2c1CCN(CCO)C2 [Example 13, N-(2-cyano-3-(2,3-dihydrobenzo[b][1,4]dioxin-6-yl)phenyl)-5-(2-hydroxyethyl)-1-methyl-4,5,6,7-tetrahydro-1H-imidazo[4,5-c]pyridine-2-carboxamide]
≤ 100 | COc1cccc(-c2cccc(NC(=O)c3nc4c(s3)CNCC4)c2C#N)c1 [Example 16, N-(2-cyano-3′-methoxybiphenyl-3-yl)-4,5,6,7-tetrahydrothiazolo[5,4-c]pyridine-2-carboxamide]
≤ 100 | COc1cc(F)cc(-c2cccc(NC(=O)c3nc4c(s3)CNCC4)c2C#N)c1 [Example 17, N-(2-cyano-3′-fluoro-5′-methoxybiphenyl-3-yl)-4,5,6,7-tetrahydro[1,3]thiazolo[5,4-c]pyridine-2-carboxamide]
